Laboratory results reported in ChEMBL document CHEMBL5346927, “Discovery of a novel 1H-pyrazole- [3,4-b] pyridine-based lysine demethylase 5B inhibitor with potential anti-prostate cancer activity that perturbs the phosphoinositide 3-kinase/AKT pathway” (Eur J Med Chem, 2023).

Assays:
[1] = target: T1, Lysine-specific demethylase 5B (Homo sapiens, UniProt Q9UGL1); experiment: Inhibition of KDM5B (unknown origin) at 10 uM relative to control
[2] = target: T1, Lysine-specific demethylase 5B; experiment: Inhibition of KDM5B (unknown origin)
HepG2 = experiment: Antitumor activity against human HepG2 cells assessed as inhibition of cell proliferation incubated for 72 hrs by MTT assay; format: functional, cell-based; conditions: HepG2, 72 h
PC-3 = experiment: Antitumor activity against human PC-3 cells assessed as inhibition of cell proliferation incubated for 72 hrs by MTT assay; format: functional, cell-based; conditions: PC-3, 72 h
MCF7 = experiment: Antitumor activity against human MCF7 cells assessed as inhibition of cell proliferation incubated for 72 hrs by MTT assay; format: functional, cell-based; conditions: MCF7, 72 h
MGC-803 = experiment: Antitumor activity against human MGC-803 cells assessed as inhibition of cell proliferation incubated for 72 hrs by MTT assay; format: functional, cell-based; conditions: MGC-803, 72 h
DU-145 = experiment: Antiproliferative activity against human DU-145 cells assessed as inhibition of cell proliferation incubated for 72 hrs by MTT assay; format: functional, cell-based; conditions: DU-145, 72 h
LNCaP = experiment: Antiproliferative activity against human LNCaP cells assessed as inhibition of cell proliferation incubated for 72 hrs by MTT assay; format: functional, cell-based

T1 sequence (Q9UGL1 whole entry): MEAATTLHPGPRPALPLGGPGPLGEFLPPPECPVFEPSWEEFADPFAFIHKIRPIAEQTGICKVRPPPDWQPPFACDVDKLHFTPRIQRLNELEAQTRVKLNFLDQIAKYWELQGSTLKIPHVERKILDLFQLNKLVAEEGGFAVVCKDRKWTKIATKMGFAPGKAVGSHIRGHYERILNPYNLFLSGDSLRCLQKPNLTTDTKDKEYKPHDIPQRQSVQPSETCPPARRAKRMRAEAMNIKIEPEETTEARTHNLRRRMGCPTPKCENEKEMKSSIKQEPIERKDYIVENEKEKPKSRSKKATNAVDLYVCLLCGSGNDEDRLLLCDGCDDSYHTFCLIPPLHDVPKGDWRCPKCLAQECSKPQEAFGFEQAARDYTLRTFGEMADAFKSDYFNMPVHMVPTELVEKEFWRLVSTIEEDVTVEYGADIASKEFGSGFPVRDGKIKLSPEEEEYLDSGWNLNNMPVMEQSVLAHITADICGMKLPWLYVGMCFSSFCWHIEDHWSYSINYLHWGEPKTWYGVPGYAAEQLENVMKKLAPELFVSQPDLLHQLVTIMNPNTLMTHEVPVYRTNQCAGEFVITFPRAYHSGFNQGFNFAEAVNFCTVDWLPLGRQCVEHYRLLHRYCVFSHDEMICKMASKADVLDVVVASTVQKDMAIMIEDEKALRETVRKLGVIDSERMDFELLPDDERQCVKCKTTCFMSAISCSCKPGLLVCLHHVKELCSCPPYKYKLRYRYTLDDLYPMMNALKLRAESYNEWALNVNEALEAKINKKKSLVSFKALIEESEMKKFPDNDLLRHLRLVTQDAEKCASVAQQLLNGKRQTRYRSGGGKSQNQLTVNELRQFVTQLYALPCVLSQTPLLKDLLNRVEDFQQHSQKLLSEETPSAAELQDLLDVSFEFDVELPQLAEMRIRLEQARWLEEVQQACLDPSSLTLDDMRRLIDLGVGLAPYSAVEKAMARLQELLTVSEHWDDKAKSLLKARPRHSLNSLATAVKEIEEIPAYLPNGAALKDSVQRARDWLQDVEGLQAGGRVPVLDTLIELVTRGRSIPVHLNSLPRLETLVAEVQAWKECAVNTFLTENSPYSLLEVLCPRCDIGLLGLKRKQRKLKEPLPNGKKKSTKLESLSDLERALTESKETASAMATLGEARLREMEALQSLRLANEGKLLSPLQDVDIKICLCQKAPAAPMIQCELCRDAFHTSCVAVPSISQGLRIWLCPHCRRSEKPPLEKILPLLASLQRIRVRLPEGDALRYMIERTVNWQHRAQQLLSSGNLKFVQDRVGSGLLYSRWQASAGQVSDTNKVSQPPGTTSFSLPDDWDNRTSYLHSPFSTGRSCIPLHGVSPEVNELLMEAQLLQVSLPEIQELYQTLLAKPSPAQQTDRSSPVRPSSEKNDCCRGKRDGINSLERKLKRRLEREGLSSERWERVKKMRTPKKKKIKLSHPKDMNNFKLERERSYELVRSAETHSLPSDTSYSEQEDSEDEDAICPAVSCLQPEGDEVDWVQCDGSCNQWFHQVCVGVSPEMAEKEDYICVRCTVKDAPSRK

CN1CCN(CCNC(=O)c2cc(-c3ccccc3)nc3c2cnn3-c2ccccc2Cl)CC1
inhibition [1]: 21%
IC50 [2]: > 10 µM

CCc1ccc(-c2cc(C(=O)NCCN3CCN(C)CC3)c3cnn(-c4ccccc4)c3n2)cc1
inhibition [1]: 83%
IC50 [2]: 0.376 µM

Cc1ccc(-n2ncc3c(C(=O)NCc4cn(-c5ccc(C)c(C)c5)nn4)cc(-c4ccc5ccccc5c4)nc32)cc1
inhibition [1]: 51%
IC50 [2]: 9.37 µM

Cc1ccccc1-n1ncc2c(C(=O)NCCN3CCN(C)CC3)cc(-c3ccccc3)nc21
inhibition [1]: 83%
IC50 [2]: 4.17 µM

C#CNC(=O)c1cc(-c2ccc3ccccc3c2)nc2c1cnn2-c1ccc(C)cc1
inhibition [1]: 28%
IC50 [2]: > 10 µM

Cc1ccc(-n2ncc3c(C(=O)NCc4ccccc4)cc(-c4ccc5ccccc5c4)nc32)cc1
inhibition [1]: 27%
IC50 [2]: > 10 µM

Cc1ccc(-n2ncc3c(C(=O)NCCN4CCCCC4)cc(-c4ccc5ccccc5c4)nc32)cc1
inhibition [1]: 40%
IC50 [2]: > 10 µM

Cc1ccc(-n2ncc3c(C(=O)NCc4cn(-c5ccccc5)nn4)cc(-c4ccc5ccccc5c4)nc32)cc1
inhibition [1]: 74%
IC50 [2]: 2.17 µM

O=C(O)CNC(=O)C(=O)O [N-OXALYLGLYCINE]
IC50 [2]: 920 µM

Cc1cccc(-n2ncc3c(C(=O)NCCN4CCN(C)CC4)cc(-c4ccccc4)nc32)c1
inhibition [1]: 14%
IC50 [2]: > 10 µM

Cc1ccc(-n2ncc3c(C(=O)NCc4cn(Cc5ccc(C(F)(F)F)cc5)nn4)cc(-c4ccc5ccccc5c4)nc32)cc1
inhibition [1]: 58%
IC50 [2]: 6.97 µM

Cc1cccc(-n2ncc3c(C(=O)NCCN4CCN(C)CC4)cc(-c4ccc5ccccc5c4)nc32)c1
inhibition [1]: 53%
IC50 [2]: 9.43 µM

CC(C)c1ccc(-c2cc(C(=O)NCCN3CCN(C)CC3)c3cnn(-c4ccccc4)c3n2)cc1
inhibition [1]: 87%
IC50 [2]: 0.132 µM

CN1CCN(CCNC(=O)c2cc(-c3ccc4ccccc4c3)nc3c2cnn3-c2ccc(C(F)(F)F)cc2)CC1
inhibition [1]: 33%
IC50 [2]: > 10 µM

CN1CCN(CCNC(=O)c2cc(-c3ccccc3)nc3c2cnn3-c2ccc(Br)cc2)CC1
inhibition [1]: 44%
IC50 [2]: > 10 µM

Cc1cccc(-c2cc(C(=O)NCCN3CCN(C)CC3)c3cnn(-c4ccccc4)c3n2)c1
inhibition [1]: 67%
IC50 [2]: 2.81 µM

COc1ccc(-c2cc(C(=O)NCCN3CCN(C)CC3)c3cnn(-c4ccccc4)c3n2)cc1
inhibition [1]: 88%
IC50 [2]: 0.237 µM

Cc1ccc(-n2ncc3c(C(=O)NCc4cn(-c5ccc(F)cc5)nn4)cc(-c4ccc5ccccc5c4)nc32)cc1
inhibition [1]: 23%
IC50 [2]: > 10 µM

Cc1ccc(-n2ncc3c(C(=O)NCc4cn(-c5ccc(C)cc5C)nn4)cc(-c4ccc5ccccc5c4)nc32)cc1
inhibition [1]: 17%
IC50 [2]: > 10 µM

CN1CCN(CCNC(=O)c2cc(-c3ccccc3)nc3c2cnn3-c2ccc(Cl)cc2)CC1
inhibition [1]: 40%
IC50 [2]: > 10 µM

Cc1cc(C)cc(-n2ncc3c(C(=O)NCCN4CCN(C)CC4)cc(-c4ccccc4)nc32)c1
inhibition [1]: 20%
IC50 [2]: > 10 µM

Cc1ccc(-n2ncc3c(C(=O)Nc4ccccc4)cc(-c4ccc5ccccc5c4)nc32)cc1
inhibition [1]: -1%
IC50 [2]: > 10 µM

Cc1ccc(-n2ncc3c(C(=O)NCCN4CCN(C)CC4)cc(-c4ccccc4)nc32)cc1
inhibition [1]: 95%
IC50 [2]: 1.67 µM

CN1CCN(CCNC(=O)c2cc(-c3ccccc3)nc3c2cnn3-c2ccc(C(F)(F)F)cc2)CC1
inhibition [1]: 20%
IC50 [2]: > 10 µM

O=C(O)CCNc1cc(N2CCc3ccccc3CC2)nc(-c2ccccn2)n1
IC50 (HepG2): 39.8 µM
IC50 (PC-3): 20.3 µM
IC50 (MCF7): 33.7 µM
IC50 (MGC-803): 29.3 µM

Cc1ccccc1-n1ncc2c(C(=O)NCCN3CCN(C)CC3)cc(-c3ccc4ccccc4c3)nc21
inhibition [1]: 86%
IC50 [2]: 3.34 µM

Cc1ccccc1-c1cc(C(=O)NCCN2CCN(C)CC2)c2cnn(-c3ccccc3)c2n1
inhibition [1]: 60%
IC50 [2]: 6.15 µM

CN1CCN(CCNC(=O)c2cc(-c3ccc4ccccc4c3)nc3c2cnn3-c2ccc(Br)cc2)CC1
inhibition [1]: 46%
IC50 [2]: > 10 µM

Cc1ccc(-n2ncc3c(C(=O)NCCN4CCN(C)CC4)cc(-c4ccccc4)nc32)cc1C
inhibition [1]: 79%
IC50 [2]: 3.69 µM

CC(C)n1ncc2c(C(=O)NCc3cn(Cc4ccccc4)nn3)cc(-c3ccc4ccccc4c3)nc21
inhibition [1]: 57%
IC50 [2]: 7.7 µM

CC(C)c1ccc(-n2ncc3c(C(=O)NCCN4CCN(C)CC4)cc(-c4ccccc4)nc32)cc1
inhibition [1]: 83%
IC50 [2]: 3.99 µM

CN1CCN(CCNC(=O)c2cc(-c3ccccc3)nc3c2cnn3-c2cccc(Cl)c2)CC1
inhibition [1]: 6%
IC50 [2]: > 10 µM

Cc1ccc(-n2ncc3c(C(=O)NCCN4CCN(C)CC4)cc(-c4ccc5ccccc5c4)nc32)cc1C
inhibition [1]: 89%
IC50 [2]: 1.94 µM

Cc1ccc(-c2cc(C(=O)NCCN3CCN(C)CC3)c3cnn(-c4ccccc4)c3n2)cc1
inhibition [1]: 79%
IC50 [2]: 0.658 µM

Cc1ccc(-n2ncc3c(C(=O)NCc4cn(Cc5ccc(C#N)cc5)nn4)cc(-c4ccc5ccccc5c4)nc32)cc1
inhibition [1]: 63%
IC50 [2]: 6.38 µM

CN1CCN(CCNC(=O)c2cc(-c3ccc(Cl)cc3)nc3c2cnn3-c2ccccc2)CC1
inhibition [1]: 43%
IC50 [2]: > 10 µM

Cc1ccc(-n2ncc3c(C(=O)NCc4cn(Cc5ccccc5)nn4)cc(-c4ccc5ccccc5c4)nc32)cc1
inhibition [1]: 72%
IC50 [2]: 3.93 µM

CC(C)c1ccc(-n2ncc3c(C(=O)NCCN4CCN(C)CC4)cc(-c4ccc5ccccc5c4)nc32)cc1
inhibition [1]: 86%
IC50 [2]: 3.08 µM

Cc1ccc(-n2ncc3c(C(=O)NCc4cn(-c5cccc(Br)c5)nn4)cc(-c4ccc5ccccc5c4)nc32)cc1
inhibition [1]: 51%
IC50 [2]: 9.45 µM

Cc1ccc(-n2ncc3c(C(=O)NC4CCCC4)cc(-c4ccc5ccccc5c4)nc32)cc1
inhibition [1]: 5%
IC50 [2]: > 10 µM

Cc1ccc(-n2ncc3c(C(=O)NCCN4CCCC4)cc(-c4ccc5ccccc5c4)nc32)cc1
inhibition [1]: 58%
IC50 [2]: 7.35 µM

Cc1cc(C)cc(-c2cc(C(=O)NCCN3CCN(C)CC3)c3cnn(-c4ccc5ccccc5c4)c3n2)c1
inhibition [1]: 35%
IC50 [2]: > 10 µM

Cc1ccc(-n2ncc3c(C(=O)NCCN(C)C)cc(-c4ccc5ccccc5c4)nc32)cc1
inhibition [1]: 64%
IC50 [2]: 5.42 µM

Cc1ccc(-n2ncc3c(C(=O)NCc4cn(-c5ccc(I)cc5)nn4)cc(-c4ccc5ccccc5c4)nc32)cc1
inhibition [1]: 58%
IC50 [2]: 6.58 µM

Cc1ccc(-n2ncc3c(C(=O)NCCN4CCN(C)CC4)cc(-c4ccc5ccccc5c4)nc32)cc1
inhibition [1]: 79%
IC50 [2]: 1.35 µM

CN1CCN(CCNC(=O)c2cc(-c3ccc(Br)cc3)nc3c2cnn3-c2ccccc2)CC1
inhibition [1]: 31%
IC50 [2]: > 10 µM

Cc1ccc(-n2ncc3c(C(=O)Nc4cccnc4)cc(-c4ccc5ccccc5c4)nc32)cc1
inhibition [1]: -3%
IC50 [2]: > 10 µM

O=C(NCc1cn(Cc2ccccc2)nn1)c1cc(-c2ccc3ccccc3c2)nc2c1cnn2-c1ccc(C(F)(F)F)cc1
inhibition [1]: 63%
IC50 [2]: 6.27 µM

O=c1[nH]cc(F)c(=O)[nH]1 [FLUOROURACIL]
IC50 (PC-3): 8.41 µM
IC50 (DU-145): 8.58 µM
IC50 (LNCaP): 7.93 µM
IC50 (MCF7): 15.1 µM
IC50 (MGC-803): 10.1 µM

CN1CCN(CCNC(=O)c2cc(-c3ccccc3)nc3c2cnn3-c2ccccc2)CC1
inhibition [1]: 93%
IC50 [2]: 0.749 µM

Cc1ccc(-n2ncc3c(C(=O)NCc4cn(-c5cccc(F)c5)nn4)cc(-c4ccc5ccccc5c4)nc32)cc1
inhibition [1]: 71%
IC50 [2]: 5.26 µM
